These results are taken from patent publication US8183292B2, “Chiral cyclic β-amino acids and their derivatives, pharmaceutical compositions containing them and the use of such compounds” (BioBlocks Magyarorszag Gyogyszerkemiai es Fejleszto Kft., priority 2006, dated 2012).

Data set [1] deals with P-glycoprotein. The experiment in a line: Reversal of multidrug resistance: rhodamine 123 accumulation in human mdr1 transfected L5178 mouse T-cell lymphoma cells (flow cytometry). It counts as cell-based. The note with it: for Vrel = effect related to Verapamil: Verapamil at 10 μg/ml; for R = ratio of fluorescence and activity / R (activity ratio, fluorescence): rhodamine 123; for Multidrug resistance reversing effect (in words): 4 and 40 μg/mL, at higher concentration multiple of fluorescence activity of Verapamil. Here is the method: L5178 mouse T-cell lymphoma cells were transfected with pHa MDR1/A retrovirus, by the method as described by J. L. Weaver [J. L. Weaver, G. Szabó, P. S. Pine, M. M. Gottesmann, S. Goldenberg and A. Aszalos: The effect of ion channel blockers, immunosuppressive agents and other drugs on the activity of the multidrug transporter. Int. […] Mdr-1-expressing cell lines were selected by culturing the transfected cells with 60 ng/mL of colchicine to maintain the expression of the MDR phenotype. L5178 (parent) mouse T-cell lymphoma cells and the human mdr1 transfected subline were cultured in McCoy's 5A medium supplemented with 10% by mass of heath-inactivated horce serum, L-glutamine and antibiotics. Both cell lines were cultured at 37° C. The mouse lymphoma cell line was maintained in a 5% CO2 atmosphere.
The assays were carried out by the method as described by J. Molnár et al. [J. Molnár, I. Mucsi, J. Nacsa, A. Hevér, N. Gyémánt, K. Ugocsai, P. Hegyes, S. Kiessig, D. Gaal, H. Lage and A. Varga: New silicon compounds as resistance modifiers against multidrug-resistant cells. […] The cell density was set to a value of 2×10^6/mL, then the cells were resuspended in a serum-free McCoy's 5A medium and divided in aliquots of 0.5 mL in Eppendorf centrifuge tubes. The tested compounds were added in different concentrations to different volumes (2.0-20.0 μL) of 1.0-10.0 mg/mL stock solutions and the samples were incubated for 10 minutes at room temperature. […] The fluorescence of the cell population was measured with a Beckton Dickinson FACScan flow cytometer. […] The percentage value of the mean fluorescence intensity was calculated for the treated MDR and for the parental cell lines as compared with the values obtained with the untreated cells. The activity ratio (R) was calculated on the basis of the measured fluorescence values by the following equation: […]

In data set [2] the test system is MRC-5 human fibroblast cell lines. In words: Cytotoxicity on MRC-5 human fibroblast cell lines (Alamar Blue/resazurine, 24 h). The note with it: MRC-5 cells, 24 hours incubation, 1% DMSO. It is filed as cell-based. Here is the method:
The toxic effect of the compounds was measured on MRC-5 human fibroblast cell lines in accordance with the method that has been described in the article published by Molnár et al. [L. Molnár, G. M. Keserü, Á. Papp, Z. Lörincz, G. Ambrus és F. Darvas.: A neural network based classification scheme for cytotoxicity predictions: Validation on 30,000 compounds, Bioorg. Med. Chem. Lett. 16(4), 1037-9 (2006)]. The cells were incubated for a cell cycle (24 hours) with solutions of various concentrations prepared from the compounds, in the presence of 1% of DMSO. 3 parallel measurements were carried out with 6 different concentrations. The ratio of the viable cells was determined by reducing the Alamaar Blue (resazurine) reagent that was followed fluorimetrically. The measured materials were not toxic on the given cell line in a concentration of 128 μmol after incubation for one day.
In the following Table 1 the cytotoxicity of some compounds according to the invention is given.

SMILES strings stand for the structures.

`CC1(C)[C@H]2C[C@@H]3C(=O)N[C@@H]3[C@@H]1C2` [Compound 10, (1R,2R,5S,7R)-8,8-Dimethyl-3-Azatricyclo[5.1.1.0^2,5]Nonan-4-One] showed a melting point of 68 to 72 °C.
Still for that read-out and setting: next, `CC(C)(C)OC(=O)N1C(=O)[C@H]2C[C@H]3C[C@@H]([C@H]21)C3(C)C` [Compound 11, (1R ,2R,5S,7R)-N-tert-Butoxycarbonyl-8,8-Dimethyl-3-Azatricyclo[5.1.1.0^2,5]-Nonan-4-One]: 64 to 66 °C.
On the same count and under the same terms, next, `CNC(=O)[C@H]1[C@@H](NC(=O)OC(C)(C)C)C[C@H]2C[C@H]1C2(C)C` [Compound 12, tert-Butyl (1R,2R,3S,5R)-(2-Methylaminocarbonyl-6,6-Dimethylbicyclo[3.1.1]-Hept-3-yl)Carbamate]: 104 to 105 °C; `CC1(C)[C@H]2C[C@H](C(=O)O)[C@H](N)[C@@H]1C2` [Compound 13, (1R,2R,3S,5R)-2-Amino-6,6-Dimethylbicyclo[3.1.1]Heptan-3-Carboxylic Acid]: 270 °C.
As to `CCOC(=O)[C@H](Cc1ccccc1)NC(=O)[C@H]1C[C@H]2C[C@@H]([C@H]1NC(=O)OC(C)(C)C)C2(C)C` [Compound 17], in data set [1] (Table 3, 4 μg/ml), the “Vrel = effect related to Verapamil” value is 1.58; the “R = ratio of fluorescence and activity” value was found to be 23.1. In data set [1] (Table 3, 40 μg/ml), the “Vrel = effect related to Verapamil” value amounted to 6.45; the “R = ratio of fluorescence and activity” value is 94.24.
Compound `COC(=O)N(C1c2ccccc2-c2ccccc21)[C@H]1[C@@H](C(=O)O)C[C@H]2C[C@@H]1C2(C)C` [Compound 18, (1R,2R,3S,5R)-2-(9H-Fluoren-9-yl-Methoxycarbonylamino)-6,6-Dimethylbicyclo[3.1.1]Heptan-3-Carboxylic Acid] came in with a melting point of 160 to 162 °C.
`CC1(C)[C@H]2C[C@@H](C(=O)O)[C@H](N)[C@@H]1C2` [Compound 29, (1R,2R,3R,5R)-2-Amino-6,6-Dimethylbicyclo[3.1.1]Heptan-3-Carboxylic Acid] displayed a melting point of 250 to 252 °C.
The same measure, in the same setting: with `COC(=O)N(C1c2ccccc2-c2ccccc21)[C@H]1[C@H](C(=O)O)C[C@H]2C[C@@H]1C2(C)C` [Compound 30, (1R,2R,3R,5R)-2-(9H-Fluoren-9-yl-Methoxycarbonylamino)-6,6-Dimethylbicyclo[3.1.1]Heptan-3-Carboxylic Acid] the figure was 155 to 157 °C.
For `CCOC(=O)[C@H](Cc1ccccc1)NC(=O)[C@@H]1C[C@@H]2C[C@H]([C@@H]1NC(=O)OC(C)(C)C)C2(C)C` [Compound 38], the “Survival (%) [c = 128 μM]” value in data set [2] is 125.3%. Moreover, in data set [1] (Table 2, 4 μg/ml), the “Vrel = effect related to Verapamil” value came out at 0.79 and the “R (activity ratio, fluorescence)” value stood at 2.33. Also, in data set [1] (Table 2, 40 μg/ml), the “Vrel = effect related to Verapamil” value came out at 6.73 and the “R (activity ratio, fluorescence)” value came out at 19.92.
On to `CC1(C)[C@@H]2C[C@H](C(=O)O)[C@@H](NC(=O)OCC3c4ccccc4-c4ccccc43)[C@H]1C2` [Compound 41, (1S,2S,3S,5S)-2-(9H-Fluoren-9-yl-Methoxycarbonylamino)-6,6-Dimethylbicyclo[3.1.1]Heptan-3-Carboxylic Acid], for which, in data set [1] (Table 3, 4 μg/ml), the “Vrel = effect related to Verapamil” value is reported as 0.07; the “R = ratio of fluorescence and activity” value was found to be 0.86. Besides, in data set [1] (Table 3, 40 μg/ml), the “Vrel = effect related to Verapamil” value came out at 0.11; the “R = ratio of fluorescence and activity” value was determined as 1.25.
`CCOC(=O)[C@H]1C[C@H]2C[C@@H]([C@H]1NC(=S)Nc1cccc(OC)c1)C2(C)C` [Compound 44, (1R,2R,3S,5R)-1-(3-Ethoxycarbonyl-6,6-Dimethylbicyclo[3.1.1]Heptan-2-yl)-3-(3-Methoxyphenyl)-Thiourea] registered a melting point of 132 to 135 °C. The “Survival (%) [c = 128 μM]” value in data set [2] is given as 128.1%. Also, in data set [1], the “Multidrug resistance reversing effect (in words)” value is given as “significant dose-dependent effect”. Moreover, in data set [1] (Table 2, 4 μg/ml), the “Vrel = effect related to Verapamil” value worked out at 0.41 and the “R (activity ratio, fluorescence)” value is 2.02. Also, in data set [1] (Table 2, 40 μg/ml), the “Vrel = effect related to Verapamil” value is given as 4.47 and the “R (activity ratio, fluorescence)” value is 22.
`CCOC(=O)[C@H]1C[C@H]2C[C@@H]([C@H]1NC(=O)Nc1ccc(Cl)cc1)C2(C)C` [Compound 45, (1R,2R,3S,5R)-1-(3-Ethoxycarbonyl-6,6-Dimethylbicyclo[3.1.1]Heptan-2-yl) -3-(4-Chlorophenyl)-Urea] registered a melting point of 170 to 171 °C. For the same compound, the “Survival (%) [c = 128 μM]” value in data set [2] worked out at 176.7%. In data set [1] (Table 2, 4 μg/ml), the “Vrel = effect related to Verapamil” value is on record as 1.52 and the “R (activity ratio, fluorescence)” value came out at 7.46. Also, in data set [1] (Table 2, 40 μg/ml), the “Vrel = effect related to Verapamil” value was found to be 2.21 and the “R (activity ratio, fluorescence)” value is recorded as 10.89.
`CCOC(=O)[C@H]1C[C@H]2C[C@@H]([C@H]1NC(=S)NCCc1ccc(OC)c(OC)c1)C2(C)C` [Compound 46, (1R,2R,3S,5R)-1-(3-Ethoxycarbonyl-6,6-Dimethylbicyclo[3.1.1]Heptan-2-yl) -3-(3,4-Dimethoxyphenylethyl)-Thiourea] gave a melting point of 125 to 126 °C. In addition, the “Survival (%) [c = 128 μM]” value in data set [2] is listed as 182.2%. In data set [1], the “Multidrug resistance reversing effect (in words)” value is “significant dose-dependent effect”. In addition, in data set [1] (Table 2, 4 μg/ml), the “Vrel = effect related to Verapamil” value came to 0.82 and the “R (activity ratio, fluorescence)” value is on record as 4.02. In addition, in data set [1] (Table 2, 40 μg/ml), the “Vrel = effect related to Verapamil” value was found to be 4.46 and the “R (activity ratio, fluorescence)” value was determined as 21.92.
`CCOC(=O)[C@H]1C[C@H]2C[C@@H]([C@H]1N(Cc1ccccc1)C(=O)Nc1ccc(Cl)cc1)C2(C)C` [Compound 48, (1R,2R,3S,5R)-1-Benzyl-1-(3-Ethoxycarbonyl-6,6-Dimethylbicyclo[3.1.1]Heptan-2-yl)-3-(4-Chlorophenyl)-Urea] registered a melting point of 202 to 205 °C.
In the case of `CCOC(=O)[C@@H]1C[C@H]2C[C@@H]([C@H]1NC(=S)NCCc1ccc(OC)c(OC)c1)C2(C)C` [Compound 51, (1R,2R,3R,5R)-1-(3-Ethoxycarbonyl-6,6-Dimethylbicyclo[3.1.1]Heptan-2-yl)-3-(3,4-Dimethoxyphenyl-Ethyl)-Thiourea], the “Multidrug resistance reversing effect (in words)” value in data set [1] is recorded as “significant dose-dependent effect”. In data set [1] (Table 2, 4 μg/ml), the “Vrel = effect related to Verapamil” value turned out to be 2.70 and the “R (activity ratio, fluorescence)” value was determined as 13.29. In data set [1] (Table 2, 40 μg/ml), the “Vrel = effect related to Verapamil” value was 9.96 and the “R (activity ratio, fluorescence)” value amounted to 49.02.
Regarding `CCOC(=O)[C@@H]1C[C@@H]2C[C@H]([C@@H]1NC(=S)Nc1cccc(OC)c1)C2(C)C` [Compound 54, (1S,2S,3R,5S)-1-(3-Ethoxycarbonyl-6,6-Dimethylbicyclo[3.1.1]Heptan-2-yl) -3-(3-Methoxyphenyl)-Thiourea], in data set [1] (Table 2, 4 μg/ml), the “Vrel = effect related to Verapamil” value came out at 0.48 and the “R (activity ratio, fluorescence)” value came to 2.37. In addition, in data set [1] (Table 2, 40 μg/ml), the “Vrel = effect related to Verapamil” value is given as 5.36 and the “R (activity ratio, fluorescence)” value amounted to 26.35.
`CCOC(=O)[C@H]1C[C@@H]2C[C@H]([C@@H]1NC(=S)Nc1cccc(OC)c1)C2(C)C` [Compound 55, (1S,2S,3S,5S)-1-(3-Ethoxycarbonyl-6,6-Dimethylbicyclo[3.1.1]Heptan-2-yl)-3-(3-Methoxyphenyl)-Thiourea]: in data set [2], the “Survival (%) [c = 128 μM]” value was determined as 214.1%. Further, in data set [1] (Table 2, 4 μg/ml), the “Vrel = effect related to Verapamil” value is 0.62 and the “R (activity ratio, fluorescence)” value was found to be 3.07. Moreover, in data set [1] (Table 2, 40 μg/ml), the “Vrel = effect related to Verapamil” value is listed as 2.44 and the “R (activity ratio, fluorescence)” value was 11.99.
Consider `CCOC(=O)[C@H]1C[C@@H]2C[C@H]([C@@H]1NC(=O)Nc1ccc(Cl)cc1)C2(C)C` [Compound 56, (1S,2S,3S,5S)-1-(3-Ethoxycarbonyl-6,6-Dimethylbicyclo[3.1.1]Heptan-2-yl)-3-(4-Chlorophenyl)-Urea], for which the “Survival (%) [c = 128 μM]” value in data set [2] is listed as 116.8%. Also, in data set [1], the “Multidrug resistance reversing effect (in words)” value is recorded as “significant dose-dependent effect”. In data set [1] (Table 3, 4 μg/ml), the “Vrel = effect related to Verapamil” value is 0.14; the “R = ratio of fluorescence and activity” value is given as 1.57. Besides, in data set [1] (Table 3, 40 μg/ml), the “Vrel = effect related to Verapamil” value was 3.43; the “R = ratio of fluorescence and activity” value came out at 39.39.
